Tests used:
[1] = Colorimetry (CIEL*c*h*, ΔE2000) of anthocyanin isolates treated with pyruvic acid, 31 days storage; assay type: physicochemical; settings: day 0 vs day 31, Delta E2000
Protocol: Prior to dilution, the concentrations of the isolated pigment extracts were determined by the pH differential method for subsequent dilution to known concentrations. The isolates were then diluted to 500 μM (expressed as Cyanidin-3-glucoside equivalents) in pH 2.5 deionized water (previously adjusted with HCl) which contained 0.1% potassium sorbate (w/v) and 0.1% sodium benzoate (w/v) to function as preservative agents during storage. A pH of 2.5 was selected as a compromise of several variables: the flavylium form was predominant, the effect of pKh was minimized, and it is a relevant pH for wines. It has been reported that the pKh's of cy3 gal, cy3xylgal, and cy3xylglugal ranges from 3.01 to 3.26. Working at pH 2.5 largely avoided the effect of different equilibrium forms while also maintaining a pH that is similar to that of wines where these compounds are commonly formed. Control samples of each isolate were prepared and contained no pyruvic acid. For treatments containing pyruvic acid, a previously diluted pyruvic acid standard (pyruvic acid in the same pH 2.5 water containing preservatives) was added to obtain concentrations 100× the molar ratio of anthocyanins (50 mM of pyruvic acid). All treatments were brought to the same final volume by the addition of more pH 2.5 water. Samples were filtered through a 0.2 μm membrane into 1.5 mL glass HPLC vials. Vials were capped and stored in an incubator in the dark at 25° C. for a 31 day duration (Fisher Scientific, Waltham, Mass., U.S.). All treatments were prepared in triplicate.
Colorimetric data of samples was calculated from spectra of samples collected from the plate reader with ColorBySpectra. Absorbance data was obtained and conversion to color values was achieved using the following settings: regular transmission, D65 illuminant, and 10° observer angle. Values reported are in the CIEL*c*h* scale. After storage for 31 days, the mathematical differences in color (ΔE) were calculated according to the CIE-L*a*b* Delta E2000 equation. Colorimetric data of the samples containing pyruvic acid was used to correlate with pyranoanthocyanins formation. Spectral absorbance data of the peaks of the anthocyanins and their respective pyranoanthocyanins were also collected from the PDA during uHPLC analyses and converted to colorimetric data using ColorBySpectra under the settings described above. The spectra was obtained from the time of elution of the target compound and then standardized to an absorbance of 1.0 at λvis-max.

[2] = UV-Vis absorbance loss and first-order bleaching kinetics of pigment solutions with ascorbic acid (pH 3.0 citrate buffer, 25° C., dark); assay type: physicochemical; settings: for K (reaction rate, first-order) / t1/2: 25° C. dark
Protocol: The semi-purified chokeberry extract, the isolated cyanidin-3-galactoside, and the purified 5-carboxypyranocyanidin-3-galactoside were diluted in pH 3.0 citrate buffer (0.1 M adjusted with HCl) until an absorbance of 1.0 at their respective λmax was reached. Levels of AA of 250, 500, and 1000 mg/L were added using a concentrated ascorbic acid stock solution, and a control consisting of each pigment with the absence of AA was maintained. The control consisted of the pigment in the buffer in the absence of AA. An additional test was performed with the same model juice using hydrogen peroxide, a known degradation product of AA. To determine if AA bleaching was due to formation of H2O2, direct addition of it was investigated. In place of added AA, a 62.2 μL of a 0.3% peroxide solution was added to match the molar equivalency of the 500 mg/L AA level, which was 2.84 mM. All samples were brought to the same final volume with additional citrate buffer. […] Samples were stored in the dark at 25° C. in an incubator. UV-Vis spectrophotometry, colorimetry, and HPLC analyses were conducted over a 5 day period following the addition of ascorbic acid or hydrogen peroxide. UV-Vis spectral data was collected every hour for the first 8 hours, and then at 12 hr, and daily from that point on for 5 days. […] HPLC analyses were conducted on days 0, 1, 3, and 5. All treatments were run in triplicate. A SpectraMax 190 Microplate Reader (Molecular Devices, Sunnyvale, Calif., U.S.) with a 96-well plate (poly-D-lysine coated polystyrene) were used for the evaluation of absorbance from 380-700 nm, 1 nm intervals. Aliquots (200 uL) of samples were loaded into individual wells, and a blank consisted of the same citrate buffer used. Because of the rapid nature of AA-induced color loss, degradation kinetics were evaluated in terms of change in maximum absorbance at the original λmax over time. Bleaching is a first-order reaction, typical of ACN degradation, and was modeled as such in determining the reaction rate and half-life. The decrease in maximum absorbance correlated with an increase in lightness (L*) as well as the decrease in chroma (c*). The reduction in maximum absorbance did closely follow first-order kinetics for chokeberry extract and cyanidin-3-galactoside but slightly deviated for 5-carboxypyranocyanidin-3-galactoside. […] The kinetics results for each pigment and AA level can be found in Table 3 below.

## OC[C@H]1O[C@@H](Oc2cc3c(O)cc(O)cc3[o+]c2-c2ccc(O)c(O)c2)[C@H](O)[C@@H](O)[C@H]1O [Cyanidin-3-galactoside, cyanidin-3-galactoside]
[1]
  total color change (ΔE): 8.2
[2]; 250 mg/L AA
  K (reaction rate, first-order): 3.18E−02
  t1/2: 22 h
[2]; 500 mg/L AA, 5 day period
  reduction in maximum absorbance: 88%
[2]; 500 mg/L AA, after treatment
  λmax after hypsochromic change: 509 nm
[2]; 500 mg/L AA, start
  λmax before hypsochromic change: 511 nm
[2]; 500 mg/L AA
  K (reaction rate, first-order): 5.90E−02
  t1/2: 12 h
[2]; 1000 mg/L AA
  K (reaction rate, first-order): 8.64E−02
  t1/2: 8 h
[2]; AA 0-1000 mg/L
  slope of reaction rate vs AA level (susceptibility to AA), relative to 5-carboxypyranocyanidin-3-galactoside: 8.2 ×
  slope of reaction rate vs AA level, relative to chokeberry extract: 3.1 ×
[2]; Control, no AA
  t1/2: 546 h
[2]; Control, no AA, absorbance at λvis-max
  K (reaction rate, first-order): 1.27E−03
[2]; all levels of AA added
  time before a significant difference (p<0.05) in maximum absorbance from time 0: 2 h
